Common to all, as to assay type: in vivo, Drosophila melanogaster
Assay [1] has as its system FS (dFMR1-3+frame shifted rescue fragment) flies. Nature of the assay: Naive courtship behavior (courtship index toward virgin female), FS flies. From the text: (§1) Learning and memory (cognitive abilities) can be examined in Drosophila by utilizing several available learning and memory paradigms. The most popular is a classical conditioning paradigm in which the flies learn to associate electric shocks with olfactory cues (Dudia et al, 1976; Davis, 1993; Tully, 1994). An alternative paradigm to study learning and memory in Drosophila is called conditioned courtship, wherein a male fly learns to modify his courtship behavior after experience with an unreceptive female; it is a multi-sensory paradigm involving associations from more then one sensory input (Siegel and Hall, 1979; for review see Hall, 1994). It is a more complex associative learning paradigm and was utilized to assay learning and memory in this article to elucidate the role of dFMR1 in learning and memory (Tompkins et al, 1980; Tompkins et al, 1982; Tompkins et al, 1983; Tompkins et al, 1984; Ackerman and Siegel, 1986). Courting male flies perform a characteristic sequence of behaviors: orienting toward and following the female, tapping her with his forelegs, vibrating one or both wings, licking her genitalia, and attempting copulation (Sturtevant, 1915; Bastock and Manning, 1955; Bastock, 1956). These behaviors are repeated with some variation until successful copulation occurs. Virgin females will generally respond by mating; however, recently mated females will be unreceptive and will not allow copulation to occur (Spieth, 1974), they display different behaviors (Bastock and Manning, 1955; Connolly and Cook, 1973) and have an altered, although somewhat overlapping, pheromonal profile (Cobb and Ferveur, 1996). The naive male will find a previously mated female to have a pheromonal repertoire that is less provocative then that of a virgin female target. A naive male paired with a mated female will initially court her, but his courtship activity soon decreases; after 1 hour of experience with the mated female, his courtship when subsequently paired with a virgin female remains depressed for 2-3 hours (Siegel and Hall, 1979). This effect is not a general suppression of all courtship activity since a male's tendency to court an immature male is not suppressed (Gailey et al, 1984). […] These behaviors are quantified as a courtship index (CI) which is defined as the percentage of time a male fly spends performing any of the six courtship steps toward a target female in a ten minute test period. A decrease in CI after training with a previously mated female is indicative of behavioral plasticity in the form of learning or memory.
Since we use female targets that are not etherized (therefore they are freely moving), and the w118 and dfmr1-3 flies may have slightly impaired visual acuity due to lack of eye pigmentation, and since visual inputs affect courtship behavior, all subsequent experiments were done utilizing only the genotypes Rescue: dfmr1-3+wild type rescue fragment, and FS: dfmr1-3+frame shifted rescue fragment. Both of these genotypes have more pigmentation and similar levels of eye pigmentation to each other. For FIGS. 4 and 5, a high concentration of MPEP (1,000 μg/ml) was used. For the remainder of the experiments the food was either control (CT) or exactly the same control food containing the appropriate concentration of MPEP (M). The position of the CT and the M are indicative of the point at which the group was on the particular food. The first letter indicates the food type that the larvae grew up on, and the second letter denotes the food type that the adult flies were placed on within four hours of eclosion, […] fresh food.
Naive males were placed in the training chamber for one hour with no female, and then placed with a virgin target female for a ten-minute interval. The naive courtship behavior was reduced by high MPEP concentration in Rescue (p<0.0001) and FS (p<0.0005) lines, and it was depressed to similar levels by high MPEP treatment in the Rescue and FS groups (FIG. 2A). […]

The test system of assay [2] is Rescue (dFMR1-3+wild type rescue fragment) flies. In words: Naive courtship behavior (courtship index toward virgin female), Rescue flies. As to conditions: for naive courtship: 5 day old.
Description: as §1
Since we use female targets that are not etherized (therefore they are freely moving), and the w118 and dfmr1-3 flies may have slightly impaired visual acuity due to lack of eye pigmentation, and since visual inputs affect courtship behavior, all subsequent experiments were done utilizing only the genotypes Rescue: dfmr1-3+wild type rescue fragment, and FS: dfmr1-3+frame shifted rescue fragment. Both of these genotypes have more pigmentation and similar levels of eye pigmentation to each other. For FIGS. 4 and 5, a high concentration of MPEP (1,000 μg/ml) was used. For the remainder of the experiments the food was either control (CT) or exactly the same control food containing the appropriate concentration of MPEP (M). The position of the CT and the M are indicative of the point at which the group was on the particular food. The first letter indicates the food type that the larvae grew up on, and the second letter denotes the food type that the adult flies were placed on within four hours of eclosion, and for the four following days, until the day before testing when they were placed on fresh food.
In order to determine if MPEP can get into the Drosophila central nervous system (CNS) through feeding behavior, we mixed MPEP into the food at a concentration of 1,000 μg/ml ([…]). Males were raised on CT food and then placed on either CT or M food. […]

For assay [3], the system named is FS (dFMR1-3+frame shifted rescue fragment) flies. Nature of the assay: Conditioned courtship: short-term memory at 60 minutes, virgin female target, FS flies. The method, then:
(§2) Short-term memory. The model was further extended to encompass short-term memory at 60 minutes after training. After the one hour training session with a previously mated female, the female is removed and the male is placed in a holding chamber for 60 minutes, then subsequently placed in a testing chamber with a virgin female target to assess short-term memory (FIG. 4C). […] CT-CT FS flies court just as vigorously at 60 minutes after training as naive CT-CT FS flies. […] The FS groups that were treated with MPEP in development alone, adulthood alone or in both development and adulthood display experience dependent reduction of courtship activity at 60 minutes after training when compared to group matched naives M-M FS, p<0.0001, CT-M FS, p<0.0001 and M-CT FS, p<0.0001. […] Additionally, flies were tested for ability to discriminate between virgin and previously mated females (FIG. 4D).
(§3) In order to examine short-term memory at 60 minutes after training, after the one hour training session with a previously mated female, the female is removed and the male is placed in a holding chamber for 60 minutes, then subsequently placed in a testing chamber with a virgin female (FIG. 9B). […] CT-CT FS flies court just as vigorously at 60 minutes after training as naive CT-CT FS flies. […] The FS groups that were treated with MPEP in development alone, adulthood alone or in both development and adulthood display experience dependent reduction of courtship activity at 60 minutes after training when compared to group matched naives M-M FS.

For assay [4], the system named is FS flies lacking dfmr1 activity. Nature of the assay: Short-term memory (60 mins) with mated female targets, FS flies. The protocol: (§4) Effects of drug treatment on short-term memory (60 mins) in flies lacking dfmr1 activity with mated female targets. Short-term (60 min.) memory was measured in Rescue and FS flies that were either fed control food or underwent various drug treatments as described below. Short-term memory was measured by placing a trained male in a holding chamber for 60 minutes (after being trained for one hour with a previously mated female), then subsequently placing him in a testing chamber with a mated female target for a ten-minute courtship interval (C.I.). This C.I. was compared to the C.I. obtained for naïve courtship of a previously mated female, i.e., C.I. during the first 10 minutes of the training session with a previously mated female. Additionally, for reference the C.I. during the last 10 minutes of the training period was also determined. Numbers of flies are indicated above each bar for all groups. The levels of significance are indicated as follows; *=p<0.05; **=p<0.005; ***=p<0.0001.
(§5) Restoration of short-term memory with mGluR antagonists. To establish that the failure to observe memory was not due to a problem with recognizing or processing the appropriate cues from the virgin female target, we used a modified version of the conditioned courtship paradigm where the male is paired with a mated female target subsequent to training (Kane et al., 1997; Joiner and Griffith, 1997; Joiner and Griffith, 1999; Kamashev et al., 1999). Again, with pharmacologic treatment it is necessary to utilize more then one compound to confirm the specificity of the target, so in this case we used four mGluR antagonists. […] It is also important to note that the robust deficit in synaptic plasticity in FS flies, with regard to memory, is a critical extension of the previous models of Fragile X syndrome in model organisms, since this is one of the most prominent aspects of the human disorder. Furthermore, we have shown that antagonism of the mGluRs can restore synaptic plasticity in the Drosophila model of Fragile X syndrome.

The subject of another assay is Rescue flies. Nature of the assay: Short-term memory (60 mins) with mated female targets, Rescue flies. The protocol:
as §4, §5

Assay [5] relates to Rescue (dFMR1-3+wild type rescue fragment) flies. In words: Conditioned courtship: short-term memory at 60 minutes, virgin female target, Rescue flies. As to conditions: 5 day old; MPEP (20 μg/ml), NaCl (5 and 50 mM), LY341495 (400 nM). The protocol:
as §2, §3

The mark [6] stands for this setting: 86 μM MPEP, 400 nM LY341495, 573 μM MPPG, 348 μM MTPG.
Setting [7] is: 5 day old, 8.6 mM MPEP, 400 nM LY341495.

Consider two compounds from US20080187492A1, “Drosophila Models For Diseases Affecting Learning and Memory” (priority 2004, published 2008).

On to `CC(N)(C(=O)O)c1ccc(P(=O)(O)O)cc1` (racemic) [MPPG, (RS)-alpha-methyl-4-phosphoonophenylglycine], for which the naive courtship activity result is “significant increase in courtship activity” in assay [1] (5 day old adults, 573 mM MPPG (p<0.0001) or 348 μM MTPG (p<0.005)) and “significant decrease in courtship activity” in assay [2] (5 day old adults, 573 mM MPPG or 348 μM MTPG, p<0.0001 for both). Besides, in assay [3] (20-day-old, concentration not given), the short-term memory result is “rescue short-term memory”. The “short-term memory, mated female target” value is reported as “demonstrated restoration of short-term memory” in assay [4] (setting [6]) and “demonstrated intact short-term memory” with Rescue flies (setting [6]). Also, the “memory at 60 minutes post training, mated female target” value (in assay [4] (setting [7]); with Rescue flies (setting [7])) was “demonstrate memory at 60 minutes post training” each time.

Turning to `[Cl-].[Na+]` [NaCl], the naive courtship entry is “did not restore naive courtship” in assay [1] (5 day old, NaCl at 5 or 50 mM in food); “did not suppress naive courtship” in assay [2] (LiCl 5 mM, NaCl 5 mM in food); “suppressed naive courtship” in assay [2] (LiCl 50 mM, NaCl 50 mM in food). Besides, the short term memory entry is “had no effect” in assay [3] (5 day old, NaCl (5 and 50 mM)); “did not affect short term memory” in assay [5].
